Laboratory results as given in patent US20110166112A1, “METHOD FOR STIMULATING PLATELET PRODUCTION” (Eisai, Inc., priority 2009, published 2011).

Tested on: subjects with chronic ITP
Assay: Combined 28-day and 6-month rollover studies of E5501: safety (TEAEs, serious TEAEs, thromboembolic events, neoplasms, liver toxicity, discontinuations)
Type: in vivo, human
Excerpt: Primary Endpoint: The primary endpoint was to assess the safety and tolerability to E5501, including AEs and clinical laboratory parameters, over the 6 additional months of treatment.
In this way, safety data reflect each subject's complete duration of exposure to E5501 starting with lead-in the previous study and continuing into the current study.
Following Protocol Amendment 4, the current study contained a flexible dose regimen; therefore, this study was considered to have an open-label, uncontrolled, single-arm design. […] This was the method used to assess safety. • Grouping method B was based on both treatment received and day 28 platelet response to study drug in Study the previous study. This was the method used for the analysis of efficacy for the FAS and the SE population.
Overall Adverse Events. […] The primary focus is on summary statistics for the entire safety population and provides an overall safety profile for E5501. The summary statistics for each group, e.g., lower ⅓, middle ⅓ and upper ⅓ average daily dose levels, is secondary and provides further safety information across the 3 dose levels.

[1] = Lower ⅓ dose (2.5-<8.85 mg), N=22

In the case of `O=C(Nc1nc(-c2cc(Cl)cs2)c(N2CCN(C3CCCCC3)CC2)s1)c1cnc(N2CCC(C(=O)O)CC2)c(Cl)c1` [E5501, 1-(3-chloro-5-{[4-(4-chlorothiophen-2-yl)-5-(4-cyclohexylpiperazin-1-yl)thiazol-2-yl]carbamoyl}pyridine-2-yl)piperidine-4-carboxylic acid], the “tolerability and safety profile” value (6-month treatment period) is reported as “well tolerated and demonstrated a favorable safety profile”, the “Any Serious TEAE, n (%) of subjects” value (E5501 Total, N=64) is reported as 5 (7.8) n (%) and the “Serious TEAE Cerebrovascular accident, n (%) of subjects” value (E5501 Total, N=64) is reported as 1 (1.6) n (%). The “Serious TEAE Chest pain, n (%) of subjects” value (E5501 Total, N=64) was 1 (1.6) n (%), the “Serious TEAE Diarrhoea, n (%) of subjects” value (E5501 Total, N=64) was 1 (1.6) n (%) and the “Serious TEAE Haemorrhage intracranial, n (%) of subjects” value (E5501 Total, N=64) was 1 (1.6) n (%). The “Serious TEAE Lethargy, n (%) of subjects” value (E5501 Total, N=64) was 1 (1.6) n (%), the “Serious TEAE Mitral valve incompetence, n (%) of subjects” value (E5501 Total, N=64) was 1 (1.6) n (%) and the “Serious TEAE Myocardial infarction, n (%) of subjects” value (E5501 Total, N=64) was 1 (1.6) n (%). The “Serious TEAE Nausea, n (%) of subjects” value (E5501 Total, N=64) was 1 (1.6) n (%), the “Serious TEAE Pelvic venous thrombosis, n (%) of subjects” value (E5501 Total, N=64) was 1 (1.6) n (%) and the “Serious TEAE Platelet count decreased, n (%) of subjects” value (E5501 Total, N=64) was 1 (1.6) n (%). For the same molecule, the “Serious TEAE Pneumonia, n (%) of subjects” value (E5501 Total, N=64) was 1 (1.6) n (%), the “Serious TEAE Pyrexia, n (%) of subjects” value (E5501 Total, N=64) was 1 (1.6) n (%) and the “Serious TEAE Thrombocytopenia, n (%) of subjects” value (E5501 Total, N=64) was 1 (1.6) n (%). The “Serious TEAE Transient ischaemic attack, n (%) of subjects” value (E5501 Total, N=64) was 1 (1.6) n (%), the “Serious TEAE Vomiting, n (%) of subjects” value (E5501 Total, N=64) was 2 (3.1) n (%) and the “Serious TEAE, SOC Blood and lymphatic system disorders, n (%) of subjects” value (E5501 Total, N=64) was 1 (1.6) n (%). The “Serious TEAE, SOC Cardiac disorders, n (%) of subjects” value (E5501 Total, N=64) was 2 (3.1) n (%), the “Serious TEAE, SOC Gastrointestinal disorders, n (%) of subjects” value (E5501 Total, N=64) was 2 (3.1) n (%) and the “Serious TEAE, SOC General disorders and administration site conditions, n (%) of subjects” value (E5501 Total, N=64) was 1 (1.6) n (%). The “Serious TEAE, SOC Infections and infestations, n (%) of subjects” value (E5501 Total, N=64) was 1 (1.6) n (%), the “Serious TEAE, SOC Investigations, n (%) of subjects” value (E5501 Total, N=64) was 1 (1.6) n (%) and the “Serious TEAE, SOC Nervous system disorders, n (%) of subjects” value (E5501 Total, N=64) was 3 (4.7) n (%). The “Serious TEAE, SOC Vascular disorders, n (%) of subjects” value (E5501 Total, N=64) was 1 (1.6) n (%), the “Discontinued 501-CL-004, PC increase to ≧500,000/mm^3” value (Full Analysis Set, Responders in previous study) was 0 n and the “Abdominal pain upper, n of subjects” value [1] was 0. The “Any Serious TEAE, n (%) of subjects” value [1] was 1 (4.5) n (%), the “Any TEAE, % of subjects” value [1] was “(90.9) %” and the “Any TEAE, n of subjects” value [1] was 20. The “Arthralgia, % of subjects” value [1] was “(4.5) %”, the “Arthralgia, n of subjects” value [1] was 1 and the “Asthenia, % of subjects” value [1] was “(13.6) %”. The “Asthenia, n of subjects” value [1] was 3, the “Back pain, % of subjects” value [1] was “(4.5) %” and the “Back pain, n of subjects” value [1] was 1. The “Constipation, n of subjects” value [1] was 0, the “Contusion, % of subjects” value [1] was “(13.6) %” and the “Contusion, n of subjects” value [1] was 3. For the same molecule, the “Cough, % of subjects” value [1] was “(4.5) %”, the “Cough, n of subjects” value [1] was 1 and the “Deaths, n of subjects” value [1] was 0. The “Diarrhoea, % of subjects” value [1] was “(13.6) %”, the “Diarrhoea, n of subjects” value [1] was 3 and the “Dizziness, % of subjects” value [1] was “(4.5) %”. The “Dizziness, n of subjects” value [1] was 1, the “Dose interruption due to TEAE, % of subjects” value [1] was “(13.6) %” and the “Dose interruption due to TEAE, n of subjects” value [1] was 3. The “Dyspnoea, % of subjects” value [1] was “(9.1) %”, the “Dyspnoea, n of subjects” value [1] was 2 and the “Ecchymosis, n of subjects” value [1] was 0. For the same molecule, the “Epistaxis, % of subjects” value [1] was “(18.2) %”, the “Epistaxis, n of subjects” value [1] was 4 and the “Fatigue, % of subjects” value [1] was “(36.4) %”. For the same molecule, the “Fatigue, n of subjects” value [1] was 8, the “Gingival bleeding, % of subjects” value [1] was “(4.5) %” and the “Gingival bleeding, n of subjects” value [1] was 1. The “Headache, % of subjects” value [1] was “(18.2) %”, the “Headache, n of subjects” value [1] was 4 and the “Insomnia, % of subjects” value [1] was “(4.5) %”. The “Insomnia, n of subjects” value [1] was 1, the “Migraine, n of subjects” value [1] was 0 and the “Mouth haemorrhage, n of subjects” value [1] was 0. The “Nausea, n of subjects” value [1] was 0, the “Pain in extremity, % of subjects” value [1] was “(9.1) %” and the “Pain in extremity, n of subjects” value [1] was 2. For the same molecule, the “Petechiae, % of subjects” value [1] was “(13.6) %”, the “Petechiae, n of subjects” value [1] was 3 and the “Platelet count increased, % of subjects” value [1] was “(9.1) %”. For the same molecule, the “Platelet count increased, n of subjects” value [1] was 2, the “Serious TEAE Cerebrovascular accident, n (%) of subjects” value [1] was 0 n (%) and the “Serious TEAE Chest pain, n (%) of subjects” value [1] was 0 n (%). For the same molecule, the “Serious TEAE Diarrhoea, n (%) of subjects” value [1] was 0 n (%), the “Serious TEAE Haemorrhage intracranial, n (%) of subjects” value [1] was 0 n (%) and the “Serious TEAE Lethargy, n (%) of subjects” value [1] was 0 n (%). For the same molecule, the “Serious TEAE Mitral valve incompetence, n (%) of subjects” value [1] was 0 n (%), the “Serious TEAE Myocardial infarction, n (%) of subjects” value [1] was 0 n (%) and the “Serious TEAE Nausea, n (%) of subjects” value [1] was 0 n (%). For the same molecule, the “Serious TEAE Pelvic venous thrombosis, n (%) of subjects” value [1] was 0 n (%), the “Serious TEAE Platelet count decreased, n (%) of subjects” value [1] was 0 n (%) and the “Serious TEAE Pneumonia, n (%) of subjects” value [1] was 0 n (%). For the same molecule, the “Serious TEAE Pyrexia, n (%) of subjects” value [1] was 0 n (%), the “Serious TEAE Thrombocytopenia, n (%) of subjects” value [1] was 1 (4.5) n (%) and the “Serious TEAE Transient ischaemic attack, n (%) of subjects” value [1] was 0 n (%). For the same molecule, the “Serious TEAE Vomiting, n (%) of subjects” value [1] was 0 n (%), the “Serious TEAE, % of subjects” value [1] was “(4.5) %” and the “Serious TEAE, SOC Blood and lymphatic system disorders, n (%) of subjects” value [1] was 1 (4.5) n (%). The “Serious TEAE, SOC Cardiac disorders, n (%) of subjects” value [1] was 0 n (%), the “Serious TEAE, SOC Gastrointestinal disorders, n (%) of subjects” value [1] was 0 n (%) and the “Serious TEAE, SOC General disorders and administration site conditions, n (%) of subjects” value [1] was 0 n (%). For the same molecule, the “Serious TEAE, SOC Infections and infestations, n (%) of subjects” value [1] was 0 n (%), the “Serious TEAE, SOC Investigations, n (%) of subjects” value [1] was 0 n (%) and the “Serious TEAE, SOC Nervous system disorders, n (%) of subjects” value [1] was 0 n (%). For the same molecule, the “Serious TEAE, SOC Vascular disorders, n (%) of subjects” value [1] was 0 n (%).
